According to patent US9717253B2, “Synergistic Bacillus thuringiensis subsp. aizawai and chlorantraniliprole mixtures for diamondback moth, beet armyworm, soybean looper, corn earworm, cabbage looper, and southwestern corn borer control” (priority 2015, dated 2017):
Read-outs that look alike come from different tables or passages of the source.

Assays:
[1] = test system: diamondback moth larvae; assay: Leaf dip test, diamondback moth larvae; format: in vivo; settings: Plutella xylostella, foliar, Bta 2.7 ppm, chlorantraniliprole 0.0009 ppm, mixture 2.7 ppm + 0.0009 ppm, read-out: % Efficacy
Procedure: (§1) For these tests, standardized laboratory leaf dip methods were used to inoculate plant material with treatment(s). Dry, treated leaves were placed into Petri dishes (100×25 mm) containing filter paper wetted with 500 μl of distilled H2O (“dH2O”). Each dish was then infested with between 5 and 10 larvae, dependent on species. Efficacy ratings were taken at specified intervals. Synergy ratings were calculated for each test.
In this study, the response of diamondback moth larvae to synergistic amounts of Bacillus thuringiensis subsp. aizawai (“Bta”) and chlorantraniliprole was observed.
(§2) % Cexp=A+B−(AB/100), where % Cexp is the expected efficacy and “in which A and B are the control levels given by the single [insecticides]. If the ratio between the experimentally observed efficacy of the mixture Cobs and the expected efficacy of the mixture is greater than 1, synergistic interactions are present in the mixture.” (Gisi, Synergisitic Interaction of Fungicides in Mixtures, The American Phytopathological Society, 86:11, 1273-1279, 1996). Adopting a conservative approach, Applicant determined synergy to be present at ratios of ≧1.15.
(§3) Bacillus thuringiensis subsp. aizawai was applied at a concentration of 2.7 ppm (2.7 μg/ml). Chlorantraniliprole was applied at a concentration of 0.0009 ppm (0.0009 μg/ml). […]

[2] = test system: beet armyworm larvae; assay: Leaf dip test, beet armyworm larvae; format: in vivo; settings: Spodoptera exigua, foliar, Bta 2.7 ppm, chlorantraniliprole 0.0009 ppm, mixture 2.7 ppm + 0.0009 ppm, read-out: % Efficacy
Procedure: as §1, §2
In this study, the response of beet armyworm larvae to amounts of Bacillus thuringiensis subsp. aizawai and chlorantraniliprole was observed.
as §3

[3] = test system: cabbage looper larvae; assay: Leaf dip test, cabbage looper larvae; format: in vivo; settings: Trichoplusia ni, foliar, Bta 2.7 ppm, chlorantraniliprole 0.0009 ppm, mixture 2.7 ppm + 0.0009 ppm, read-out: % Efficacy
Procedure: as §1, §2
In this study, the response of cabbage looper larvae to amounts of Bacillus thuringiensis subsp. aizawai and chlorantraniliprole was observed.
as §3

[4] = test system: sugarcane borer larvae; assay: Leaf dip test, sugarcane borer larvae; format: in vivo; settings: foliar, Bta 27 ppm, chlorantraniliprole 0.0009 ppm, mixture 27 ppm + 0.0009 ppm, read-out: % Efficacy
Procedure: as §1, §2
In this study, the response of sugarcane borer larvae to amounts of Bacillus thuringiensis subsp. aizawai and chlorantraniliprole was observed.
(§4) Bacillus thuringiensis subsp. aizawai was applied at a concentration of 27 ppm (27 μg/ml). Chlorantraniliprole was applied at a concentration of 0.0009 ppm (0.0009 μg/ml). […]

[5] = test system: southwestern corn borer larvae; assay: Leaf dip test, southwestern corn borer larvae; format: in vivo, Diatraea grandiosella; settings: foliar, Bta 2.7 ppm, chlorantraniliprole 0.0009 ppm, mixture 2.7 ppm + 0.0009 ppm, read-out: % Efficacy
Procedure: as §1, §2
In this study, the response of southwestern corn borer larvae to amounts of Bacillus thuringiensis subsp. aizawai and chlorantraniliprole was observed.
as §3

[6] = test system: soybean looper larvae; assay: Leaf dip test, soybean looper larvae; format: in vivo, Chrysodeixis includens; settings: foliar, Bta 27 ppm, chlorantraniliprole 0.0009 ppm, mixture 27 ppm + 0.0009 ppm, read-out: % Efficacy
Procedure: as §1, §2
In this study, the response of soybean looper larvae to amounts of Bacillus thuringiensis subsp. aizawai and chlorantraniliprole was observed.
as §4

[7] = test system: corn earworm larvae; assay: Leaf dip test, corn earworm larvae; format: in vivo; settings: Helicoverpa zea, foliar, Bta 27 ppm, chlorantraniliprole 0.0009 ppm, mixture 27 ppm + 0.0009 ppm, read-out: % Efficacy
Procedure: as §1, §2
In this study, the response of corn earworm larvae to amounts of Bacillus thuringiensis subsp. aizawai and chlorantraniliprole was observed.
as §4

CNC(=O)c1cc(Cl)cc(C)c1NC(=O)c1cc(Br)nn1-c1ncccc1Cl [Chlorantraniliprole, chlorantraniliprole]
Emax at 0.0009 ppm ([1]; 24 h after treatment): 7%
Emax at 0.0009 ppm ([1]; 48 h after treatment): 7%
Emax at 0.0009 ppm ([2]; 24 h after treatment): 10%
Emax at 0.0009 ppm ([2]; 48 h after treatment): 13%
Emax at 0.0009 ppm ([3]; 24 h after treatment): 7%
Emax at 0.0009 ppm ([3]; 48 h after treatment): 10%
Emax at 0.0009 ppm ([4]; 24 h after treatment): 6%
Emax at 0.0009 ppm ([4]; 48 h after treatment): 12%
Emax at 0.0009 ppm ([5]; 24 h after treatment): 3%
Emax at 0.0009 ppm ([5]; 48 h after treatment): 7%
Emax at 0.0009 ppm ([6]; 24 h after treatment): 10%
Emax at 0.0009 ppm ([6]; 48 h after treatment): 13%
Emax at 0.0009 ppm ([7]; 24 h after treatment): 10%
Emax at 0.0009 ppm ([7]; 48 h after treatment): 7%
